Test results taken from patent publication US20250186555A1, “FORMULATIONS COMPRISING ACID-NEUTRALIZING POLYMER FOR ORAL ADMINISTRATION OF GLUCAGON-LIKE PEPTIDE-2” (Entera Bio Ltd., priority 2022, published 2025).
Read-outs that look alike come from different tables or passages of the source.

Assays:
[1] = cited from earlier work
[2] = Oral teduglutide/SNAC/SSG mini-tablets in rats, plasma teduglutide by ELISA; type: in vivo, Sprague-Dawley rats; conditions: oral mini-tablets: 0.7 mg teduglutide (2.34 mg/Kg), 15 mg SNAC, 5.33 mg SSG, n=7
Description: In an exemplary in vivo rat model, the effect of SNAC, as an exemplary absorption enhancer, and SSG, as an exemplary alkaline polymer, on the oral bioavailability of teduglutide was tested.
A formulation was prepared with 0.7 mg teduglutide (2.34 mg/Kg), 15 mg SNAC, 0.2 mg stearate and 5.33 mg SSG. All substances were in a dry powder form and mixed geometrically. Afterwards, mini-tablets were prepared from the mixes using a 2 mm punch and die set at 1 ton/cm^2.
The study was conducted in 7 male Sprague-Dawley (SD) rats weighing about 299 grams (290-320 grams). Animals were deprived of food 12-15 hours prior to administration. Water supply was removed one hour before administration and returned one hour post-administration. The mini-tablets were administered by a flexible intragastric gavage with a tip adapted for solid dosage forms administration, without the aid of water. Blood samples were thereafter collected at pre-determined time points, the plasma was separated, and the plasma level of teduglutide was quantified by an ELISA kit for the detection of endogenous GLP-2 in plasma (Abcam, Cat. No. ab222863) according to manufacturer's method Version 7, upon required modifications.

[3] = teduglutide without the formulation; cited from earlier work
[4] = compared with endogenous GLP-2; cited from earlier work
[5] = pH upon addition of test substance to 0.1 M HCl solution (pH 1.2), simulated gastric fluid, pH meter; type: physicochemical
Description: Test substances were dissolved in various volumes of 0.1 M HCl solution (pH 1.2) at concentrations of 1, 2, 4, 10, 20, 50, 100 and 150 mg/ml. The solution pH was determined using an MP-103 pH-meter (MRC, Israel) equipped with ELC-10-00 electrode (MRC, Israel) or with a thin electrode HI1083 (HANNA instruments Inc.), shortly after dissolution and up to 26 hours later in order to ensure that the pH remained stable. The highest pH value obtained during the experimental time period was recorded in order to compare the acid-neutralizing capacity of each substance.
SNAC and the basic polymers sodium alginate, sodium carboxymethylcellulose in non-crosslinked (Na-CMC) and crosslinked (croscarmellose sodium, CCS) forms, and sodium starch glycolate (SSG) were dissolved in various volumes of 0.1 M HCl solution (pH 1.2) at concentrations of 1, 2, 4, 10, 20, 50, 100 and 150 mg/ml, and the solution pH was determined using an MP-103 pH-meter (MRC, Israel) equipped with ELC-10-00 electrode (MRC, Israel), as described in the Materials and Methods section hereinabove.
In order to obtain a beneficial rise in pH with a reduced loss of the active form of the absorption enhancer, the effect of various concentrations of different polymers containing carboxylate groups (sodium alginate, sodium starch glycolate, sodium carboxymethylcellulose, and croscarmellose sodium) on pH upon addition to a 0.1 M HCl solution (pH 1.2) was also evaluated. FIG. 2A presents pH values determined using an MP-103 pH-meter (MRC, Israel) equipped with ELC-10-00 electrode (MRC, Israel) and FIG. 2B presents pH values determined using an MP-103 pH-meter (MRC, Israel) equipped with a thin electrode HI1083 (HANNA instruments Inc.).

## GLP-2: Human glucagon-like peptide-2, a 33-amino acid polypeptide produced by intestinal endocrine L cells
[1]; human, in vivo
  half-life in humans: about 7 minutes

## CC[C@H](C)[C@H](NC(=O)[C@H](Cc1ccccc1)NC(=O)[C@H](CC(=O)O)NC(=O)[C@H](CCCNC(=N)N)NC(=O)[C@H](C)NC(=O)[C@H](C)NC(=O)[C@H](CC(C)C)NC(=O)[C@H](CC(N)=O)NC(=O)[C@H](CC(=O)O)NC(=O)[C@H](CC(C)C)NC(=O)[C@@H](NC(=O)[C@@H](NC(=O)[C@H](CC(N)=O)NC(=O)[C@H](CCSC)NC(=O)[C@H](CCC(=O)O)NC(=O)[C@H](CC(=O)O)NC(=O)[C@H](CO)NC(=O)[C@H](Cc1ccccc1)NC(=O)[C@H](CO)NC(=O)CNC(=O)[C@H](CC(=O)O)NC(=O)CNC(=O)[C@@H](N)Cc1c[nH]cn1)[C@@H](C)O)[C@@H](C)CC)C(=O)N[C@@H](CC(N)=O)C(=O)N[C@@H](Cc1c[nH]c2ccccc12)C(=O)N[C@@H](CC(C)C)C(=O)N[C@H](C(=O)N[C@@H](CCC(N)=O)C(=O)N[C@H](C(=O)N[C@@H](CCCCN)C(=O)N[C@H](C(=O)N[C@H](C(=O)N[C@@H](CC(=O)O)C(=O)O)[C@@H](C)O)[C@@H](C)CC)[C@@H](C)O)[C@@H](C)CC [teduglutide]
[2]
  teduglutide plasma concentrations as a function of time: enable oral delivery of teduglutide
[3]
  oral (PO) bioavailability: negligible
[4]
  stability to metabolic degradation: significantly higher stability to metabolic degradation than the endogenous glucagon like peptide 2 (GLP-2)
[1]; humans
  half-life in humans: about two hours

## O=C(O)CCCCCCCNC(=O)c1ccccc1O [SNAC, sodium 8-N-(2-hydroxybenzoyl)aminocaprylate]
[5]; 10 mg/ml SNAC added to HCl solution (pH 1.2)
  pH 5 minutes after dissolution: about 1.5
[5]; 20 mg/ml SNAC added to HCl solution (pH 1.2)
  pH 5 minutes after dissolution: 6.5
[5]; 100 mg/ml SNAC added to HCl solution (pH 1.2)
  pH 5 minutes after dissolution: about 7.5
